Where two headings read alike, the source gives them in different places.
Columns and labels:
L5178Y cells = assay: Induction of apoptosis (DNA fragmentation) in L5178Y-R cells (Table 6); format: cell-based, mouse; settings: for induction of apoptosis: 1 μM at a fluence of 30 kJ/m^2
Procedure: Mouse lymphoma L5178y-R (hereinafter also referred to as "LY-R") cells were grown in suspension culture as described in Ramakrishnan N., Oleinick, N. L. Clay, M. E., Horng, M. F., Antunez, A. R., and Evans H. H., DNA lesions and DNA degradation in mouse lymphoma L5178Y cells after photodynamic treatment sensitized by chloroaluminum phthalocyanine. Photochem. Photobiol. 50, 373-378, 1989 and Agarwal, M. L., Clay, M. E., Harvey, E. J., Evans, H. H., Antunez, A. R., and Oleinick, N. L. Photodynamic therapy induces rapid cell death by apoptosis in L5178Y mouse lymphoma cells. Cancer Res., 51, 5993-5996, 1991.
The cells were used while in exponential growth. Stock solutions of either 0.5 or 1 mM of PcIV, PcXII, PcX, PcXVIII were prepared in dimethylformamide unless otherwise indicated and added to the 10 mL medium at a rate of 1 μL per mL. After allowing 18 hours for uptake of the phthalocyanine into the cells, the flasks containing the cultures were placed on a glass exposure tray above a 500-W tungsten-halogen lamp. The exposure tray was fitted with a 600-nm high-pass filter. Flasks were exposed to various fluences of red light (up to 30 kJ/m^2) at a fluence rate of approximately 74 W/m^2). After irradiation, the cells were collected by centrifugation.
For measurement of clonogenic cell survival, aliquots were plated in medium containing soft agar as described in Ramakrishnan N., Oleinick, N. L. Clay, M. E., Horng, M. F., Antunez, A. R., and Evans H. H., DNA lesions and DNA degradation in mouse lymphoma L5178Y cells after photodynamic treatment sensitized by chloroaluminum phthalocyanine. Photochem. Photobiol. 50, 373-378, 1989. The aliquots were plated in sufficient numbers to produce 50-200 colonies. The dishes were kept in an incubator at 37° C. in an atmosphere of 5% CO2 and 95% air for 10-14 days to allow viable cells to form colonies. Colonies were counted by eye. Controls treated with the phthalocyanine alone had plating efficiencies of ~90%. The plating efficiencies of the treated cells are normalized to the plating efficiencies of control cells in each experiment. For measurement of the induction of apoptosis, DNA was isolated from the treated and control cells 2 hours after photodynamic therapy, subjected to electrophoresis on 1.5% agarose, stained with ethidium bromide, and visualized by UV transillumination, as described in Agarwal et. al. The results are shown in Tables 4, 5 and 6 and in FIG. 3.
Cells were treated with various concentrations of the compounds listed in the table and various light fluences. DNA gels were prepared and examined for the characteristic "ladder" pattern of DNA fragments. For each Pc, the minimum total PDT dose tested (calculated as the product of the minimum phthalocyanine concentration and the minimum fluence) which produced visible DNA fragments is recorded. […] PcXVIII was also added at 0.5 and 1.0 μM.

V79 cells [1] = assay: Uptake of additional phthalocyanines into V79 cells (Table 2); settings: for Uptake into V79 cells: 18 hours; for Uptake into V79 cells, composite value: average of all data; for Uptake (from Table 2): repeated in Table 3; for dependence of uptake on phthalocyanine concentration: V79 cells, 1-4 μM; for Uptake into V79 cells, composite value (asterisk): asterisk: listed value is for 1 μM, average would be higher
Procedure: V79 cells Chinese hamster lung fibroblasts were cultured using the cell culture methods described above. […] When the filters were dry, the phthalocyanines were extracted into ethanol and the absorption determined at the peak wavelength, usually 668 nm.

V79 cells [2] = assay: Clonogenicity, killing of V79 cells using photodynamic therapy (Table 3); format: cell-based, Chinese hamster
Procedure: Using the cell culture methods described above, V79 cells Chinese hamster lung fibroblasts were treated with either 0.5 or 1.0 μM of the phthalocyanines listed in Table 3. About 18 hours thereafter, the cells were irradiated with increasing doses of 675 nm broad band red light from a 500 W tungsten-halogen lamp fitted with a 600 nm high pass filter, to determine the light dosage that would kill 90% of the phthalocyanine treated cells. Where 90% of the cells were not killed, the maximum percent of cells killed were determined, (expressed as % survival) and the related light dosage recorded.

RIF-1 tumors = assay: PDT of RIF-1 implanted tumors (Table 7); format: in vivo, C3H/HeN mice; settings: 5 mg/kg in phosphate buffered saline; 675 nm, 135 J/cm^2
Procedure: The relative effectiveness at reducing tumor volume of selected phthalocyanine compounds at a given dosage was compared in vivo. RIF-1, i.e., radiation-induced fibrosarcoma, tumors were implanted into the backs of C3H/HeN mice. One tumor was implanted per mouse. Each of the phthalocyanine compounds listed in Table 7 was sonicated and vortexed in corn oil to produce a suspension. When the tumors reached […] in diameter and 2-3 mm in thickness, each mouse received 1 mg/kg in 0.1 ml of the corn oil, of the phthalocyanine suspension. For comparison, select mice received a conventional photosensitizer; either 5 mg/kg of chloroaluminum phthalocyanine tetrasulfonate, herein also referred to as "AlPcTS" in phosphate buffered saline or 5 mg/kg of Photofrin®-II in 5% dextrose. Twenty-four hours after the photosensitizers were administered, the tumors were irradiated with visible radiation delivered by an argon-pumped dye laser. The mice that received a phthalocyanine photosensitizer received light having a wavelength of 675 nm and the mice that received the Photofrin® II photosensitizer received light having a wavelength of 630 nm. Each tumor received 135 J/cm^2 of radiation. Tumor size was measured every day using calipers. The initial tumor volume was 50±10 mm^3. Tumor volume was calculated according to the hemiellipsoid model by the formula: [formula] Where l is length Where W is width

[3] = Cricetulus griseus, V79, 1 μM, at 10 kJ/m^2, read-out: Maximum Effect (% survival)
[4] = Cricetulus griseus, V79, 0.5 μM, at 10 kJ/m^2, read-out: Maximum Effect (% survival)

| Compound | Uptake into V79 cells (V79 cells [1]; 1 μM) | Uptake into V79 cells (V79 cells [1]; 4 μM) | Uptake into V79 cells, composite value (V79 cells [1]) | Uptake (from Table 2) (V79 cells [1]) | further results |
| --- | --- | --- | --- | --- | --- |
| C[Si](C)(CCCCNC(=S)N[C@@H]1O[C@H](CO)[C@@H](O)[C@H](O)[C@H]1O)O[Si]1(O[Si](C)(C)CCCCNC(=S)N[C@@H]2O[C@H](CO)[C@@H](O)[C@H](O)[C@H]2O)n2c3c4ccccc4c2N=C2N=C(N=c4c5ccccc5c(n41)=NC1=NC(=N3)c3ccccc31)c1ccccc12 [Compound XI, SiPc[OSi(CH3)2 (CH2)4 NHCSNHC6 H11l O5 ]2] | 0.1 n Moles/10^6 cells | 0.3 ± 0.1 n Moles/10^6 cells | 0.1 n Moles/10^6 cells/μM | 0.1 n Moles/10^6 cells/μM | induction of apoptosis (L5178Y cells): did not induce apoptosis; Cell survival at highest light dose at 1 µM (V79 cells [2]; Cricetulus griseus, V79, 1 μM, at 20 kJ/m^2, read-out: Maximum Effect (% survival)): 100% |
| CC(=O)OCCC[Si](C)(C)O[Si]1(O)n2c3c4ccccc4c2N=C2N=C(N=c4c5ccccc5c(n41)=NC1=NC(=N3)c3ccccc31)c1ccccc12 (stereo not shown) [Compound XIII, HOSiPcOSi(CH3)2 (CH2)3 OCOCH3] | – | 1.7 ± 0.3 n Moles/10^6 cells | 0.4 n Moles/10^6 cells/μM | 0.4 n Moles/10^6 cells/μM | Cell survival at highest light dose at 1 µM (V79 cells [2]; Cricetulus griseus, V79, 1 μM, at 15 kJ/m^2, read-out: Maximum Effect (% survival)): 88% |
| C[Si](C)(CCCN1CCOCC1)O[Si]1(O)n2c3c4ccccc4c2N=C2N=C(N=c4c5ccccc5c(n41)=NC1=NC(=N3)c3ccccc31)c1ccccc12 (stereo not shown) [Compound XIX, HOSiPcOSi(CH3)2 (CH2)3 NC4 H8 O] | 0.3 ± 0.1 n Moles/10^6 cells | 2.4 ± 0.5 n Moles/10^6 cells | – | 1.3 n Moles/10^6 cells/μM | uptake by V79 cells (in words) (V79 cells [1]): poor uptake; dependence of uptake on phthalocyanine concentration (V79 cells [1]): not linearly dependent upon the phthalocyanine concentration; Uptake into V79 cells, composite value (asterisk) (V79 cells [1]): 0.3 n Moles/10^6 cells/μM; Cell survival at highest light dose at 1 µM (V79 cells [2]; [3]): 81%; photosensitizing activity, killing V79 cells (in words) (V79 cells [2]; discussion of Table 3): less active as a photosensitizer |
| CCN(CC)c1ccc2c(c1)Oc1cc(N(CC)CC)ccc1C21c2ccccc2C(=O)N1CCCC[Si](C)(C)O[Si]1(O[Si](C)(C)C(C)(C)C)n2c3c4ccccc4c2N=C2N=C(N=c4c5ccccc5c(n41)=NC1=NC(=N3)c3ccccc31)c1ccccc12 (stereo not shown) [Compound XV, (CH3)3 C(CH3)2 SiOSiPcOSi(CH3)2 (CH2)4 NCOC27 H30 N2 O] | 0.01 ± 0.01 n Moles/10^6 cells | 0.14 ± 0.12 n Moles/10^6 cells | < 0.05 n Moles/10^6 cells/μM | 0.05 n Moles/10^6 cells/μM | induction of apoptosis (L5178Y cells): did not induce apoptosis; Cell survival at highest light dose at 4 µM (V79 cells [2]; Cricetulus griseus, V79, 4 μM, at 20 kJ/m^2, read-out: Maximum Effect (% survival)): 81% |
| C[Si](C)(CCCO)O[Si]1(O)n2c3c4ccccc4c2N=C2N=C(N=c4c5ccccc5c(n41)=NC1=NC(=N3)c3ccccc31)c1ccccc12 (stereo not shown) [Compound XVII, HOSiPCOSi(CH3)2 (CH2)3 OH] | – | 1.7 ± 0.2 n Moles/10^6 cells | 0.4 n Moles/10^6 cells/μM | 0.4 n Moles/10^6 cells/μM | Cell survival at highest light dose at 1 µM (V79 cells [2]; [3]): 19% |
| CN(C)CCCCCCCC[Si](C)(C)O[Si]1(O)n2c3c4ccccc4c2N=C2N=C(N=c4c5ccccc5c(n41)=NC1=NC(=N3)c3ccccc31)c1ccccc12 (stereo not shown) [Compound XXII, HOSiPcOSi(CH3)2 (CH2)8 N(CH3)2] | – | – | – | – | Minimum Demonstrated Condition to induce apoptosis: C × F (L5178Y cells; 0.5 μM): 5.0 μm × kJ/m^2; Minimum Demonstrated Condition to induce apoptosis: Fluence (L5178Y cells; 0.5 μM): 10.0 kJ/m^2; LD 90 (V79 cells [2]; 0.5 μM, 18 h, light dose killing 90% of cells): 10 kJ/m^2 |
| C[Si](C)(CCCN1CCSCC1)O[Si]1(O)n2c3c4ccccc4c2N=C2N=C(N=c4c5ccccc5c(n41)=NC1=NC(=N3)c3ccccc31)c1ccccc12 (stereo not shown) [Compound XXIV, HOSiPCOSi(CH3)2 (CH2)3 NC4 H8 S] | 0.003 ± 0.001 n Moles/10^6 cells | 1.3 ± 0.1 n Moles/10^6 cells | – | < 0.05 n Moles/10^6 cells/μM | dependence of uptake on phthalocyanine concentration (V79 cells [1]): not linearly dependent upon the phthalocyanine concentration; Uptake into V79 cells, composite value (asterisk) (V79 cells [1]): < 0.05 n Moles/10^6 cells/μM; Cell survival at highest light dose at 0.5 µM (V79 cells [2]; [4]): 100% |
| CCCCN(CCCC)CCC[Si](C)(C)O[Si]1(O)n2c3c4ccccc4c2N=C2N=C(N=c4c5ccccc5c(n41)=NC1=NC(=N3)c3ccccc31)c1ccccc12 (stereo not shown) [Compound XXV, HOSiPcOSi(CH3)2 (CH2)3 N(CH2)3 CH3)2] | 0.02 ± 0.02 n Moles/10^6 cells | 1.5 ± 0.3 n Moles/10^6 cells | – | < 0.05 n Moles/10^6 cells/μM | dependence of uptake on phthalocyanine concentration (V79 cells [1]): not linearly dependent upon the phthalocyanine concentration; Uptake into V79 cells, composite value (asterisk) (V79 cells [1]): < 0.05 n Moles/10^6 cells/μM; Cell survival at highest light dose at 0.5 µM (V79 cells [2]; Cricetulus griseus, V79, 0.5 μM, at 8 kJ/m^2, read-out: Maximum Effect (% survival)): 87% |
| C[Si](C)(CCCN=C=S)O[Si]1(O)n2c3c4ccccc4c2N=C2N=C(N=c4c5ccccc5c(n41)=NC1=NC(=N3)c3ccccc31)c1ccccc12 (stereo not shown) [Compound XXVI, HOSiPcOSi(CH3)2 (CH2)3 NCS] | – | – | – | – | Cell survival at highest light dose at 1 µM (V79 cells [2]; Cricetulus griseus, V79, read-out: Maximum Effect (% survival)): 100% |
| CCCCN1CCN(CCC[Si](C)(C)O[Si]2(O)n3c4c5ccccc5c3N=C3N=C(N=c5c6ccccc6c(n52)=NC2=NC(=N4)c4ccccc42)c2ccccc23)CC1 (stereo not shown) [Compound XXXI, HOSiPCOSi(CH3)2 (CH2)3 NC4 H8 N(CH2)3 CH3] | – | – | 0.3 n Moles/10^6 cells/μM | 0.3 n Moles/10^6 cells/μM | Uptake into V79 cells (V79 cells [1]; 2 μM): 0.61 ± 0.1 n Moles/10^6 cells; Cell survival at highest light dose at 0.5 µM (V79 cells [2]; [4]): 30% |
| chloroaluminum phthalocyanine tetrasulfonate [AlPcTS, reference compound] | – | – | – | – | Doubling Time of Initial Tumor Volume after PDT (RIF-1 tumors): 7 days |

Reference: patent publication US5484778A, “Phthalocyanine photosensitizers for photodynamic therapy and methods for their use” (priority 1993, dated 1996)
